Results as given in article PMC11240878, “Synthesis, enzyme inhibition assay, and molecular modeling study of novel pyrazolines linked to 4-methylsulfonylphenyl scaffold: antitumor activity and cell cycle analysis” (RSC Advances, 2024).

Tests used:
59 cancer cell lines = experiment: NCI 59 cancer cell line panel, single dose; assay type: cell-based, human; conditions: 10 μM single dose; for MG% (mean growth percent): 59 cell lines
HL-60(TB) = experiment: NCI single-dose GI%, leukemia; assay type: cell-based, human; conditions: 10.0 μM in one dose
K-562 = experiment: NCI single-dose GI%, leukemia; assay type: cell-based, human; conditions: K-562, leukemia; 10.0 μM in one dose
MOLT-4 = experiment: NCI single-dose GI%, leukemia; assay type: cell-based, human; conditions: MOLT-4, leukemia; 10.0 μM in one dose
RPMI-8226 = experiment: NCI single-dose GI%, leukemia; assay type: cell-based, human; conditions: RPMI-8226, leukemia; 10.0 μM in one dose
A549/ATCC = experiment: NCI single-dose GI%, NSC lung; assay type: cell-based, human; conditions: 10.0 μM in one dose
EKVX = experiment: NCI single-dose GI%, NSC lung; assay type: cell-based, human; conditions: 10.0 μM in one dose
HOP-62 = experiment: NCI single-dose GI%, NSC lung; assay type: cell-based, human; conditions: HOP-62, NSC lung; 10.0 μM in one dose
NCI-H226 = experiment: NCI single-dose GI%, NSC lung; assay type: cell-based, human; conditions: 10.0 μM in one dose
NCI-H522 = experiment: NCI single-dose GI%, NSC lung; assay type: cell-based, human; conditions: 10.0 μM in one dose
HCT-116 = experiment: NCI single-dose GI%, colon; assay type: cell-based, human; conditions: HCT-116, colon; 10.0 μM in one dose
HT29 = experiment: NCI single-dose GI%, colon; assay type: cell-based, human; conditions: 10.0 μM in one dose
SNB-75 = experiment: NCI single-dose GI%, CNS; assay type: cell-based, human; conditions: SNB-75, CNS; 10.0 μM in one dose
UACC-62 = experiment: NCI single-dose GI%, melanoma; assay type: cell-based, human; conditions: UACC-62, melanoma; 10.0 μM in one dose
SK-OV-3 = experiment: NCI single-dose GI%, ovarian; assay type: cell-based, human; conditions: SK-OV-3, ovarian; 10.0 μM in one dose
CAKI-1 = experiment: NCI single-dose GI%, renal; assay type: cell-based, human; conditions: CAKI-1, renal; 10.0 μM in one dose
UO-31 = experiment: NCI single-dose GI%, renal; assay type: cell-based, human; conditions: UO-31, renal; 10.0 μM in one dose
PC-3 = experiment: NCI single-dose GI%, prostate; assay type: cell-based, human; conditions: PC-3, prostate; 10.0 μM in one dose
MCF7 = experiment: NCI single-dose GI%, breast; assay type: cell-based, human; conditions: 10.0 μM in one dose
MDA-MB-231/ATCC = experiment: NCI single-dose GI%, breast; assay type: cell-based, human; conditions: 10.0 μM in one dose
BT-549 = experiment: NCI single-dose GI%, breast; assay type: cell-based, human; conditions: BT-549, breast; 10.0 μM in one dose
T-47D = experiment: NCI single-dose GI%, breast; assay type: cell-based, human; conditions: 10.0 μM in one dose
MDA-MB-468 = experiment: NCI single-dose GI%, breast; assay type: cell-based, human; conditions: MDA-MB-468, breast; 10.0 μM in one dose
SR = experiment: NCI single-dose GI%, leukemia; assay type: cell-based, human; conditions: 10.0 μM in one dose
MALME-3M = experiment: NCI single-dose GI%, melanoma; assay type: cell-based, human; conditions: 10.0 μM in one dose
UACC-257 = experiment: NCI single-dose GI%, melanoma; assay type: cell-based, human; conditions: UACC-257, melanoma; 10.0 μM in one dose
SF-268 = experiment: NCI single-dose GI%, CNS; assay type: cell-based, human; conditions: SF-268, CNS; 10.0 μM in one dose
U251 = experiment: NCI single-dose GI%, CNS; assay type: cell-based, human; conditions: 10.0 μM in one dose
SK-MEL-2 = experiment: NCI single-dose GI%, melanoma; assay type: cell-based, human; conditions: SK-MEL-2, melanoma; 10.0 μM in one dose
HL-60 cells = experiment: Cell cycle analysis by flow cytometry; assay type: cell-based, human; conditions: at IC50 concentration
Description: Flow cytometry measures cell growth in different cell cycle phases (G0–G1, S, G2/M and pre-G1).[33,77] This study aimed to find out how the target compounds affect the growth of cancer cells by examining at how they change the cell cycle and cause apoptosis in HL-60 cells.
The cell cycle analysis was conducted similarly to our prior study, using the leukemia HL-60 cell line. The cells were stained with the DNA fluorochrome PI and analyzed using a FACSCalibur flow cytometer.[33,77]

A498 = experiment: NCI single-dose GI%, renal; assay type: cell-based, human; conditions: 10.0 μM in one dose
COLO 205 = experiment: NCI single-dose GI%, colon; assay type: cell-based, human; conditions: COLO 205, colon; 10.0 μM in one dose
HCT-15 = experiment: NCI single-dose GI%, colon; assay type: cell-based, human; conditions: HCT-15, colon; 10.0 μM in one dose

Row | Compound | PCE (positive cytotoxic effect: ratio of cell lines with growth inhibition >10% to total cell lines) (59 cancer cell lines) | MG% (mean growth percent) (59 cancer cell lines) [%] | GI% (HL-60(TB)) [%] | GI% (K-562) [%] | GI% (MOLT-4) [%] | GI% (A549/ATCC) [%] | GI% (EKVX) [%] | GI% (HOP-62) [%] | GI% (NCI-H226) [%] | GI% (NCI-H522) [%] | GI% (HCT-116) [%] | GI% (SNB-75) [%] | GI% (SK-OV-3) [%] | GI% (CAKI-1) [%] | GI% (UO-31) [%] | GI% (PC-3) [%] | GI% (MCF7) [%] | GI% (T-47D) [%] | GI% (MDA-MB-468) [%] | melting point [°C] | also measured
1 | CS(=O)(=O)c1ccc(C(=O)N2N=C(c3ccccc3)CC2c2ccc(Cl)cc2)cc1 (stereo not drawn) [Compound 18b, (5-(4-Chlorophenyl)-3-phenyl-4,5-dihydro-1H-pyrazol-1-yl)(4-(methylsulfonyl)phenyl)methanone] | 22/59 | 92.03 | 22 | 32 | 17 | 13 | 21 | 29 | 15 | 27 | 26 | 13 | 26 | 18 | 32 | 22 | 13 | 31 | 12 | 321 to 323 | GI% (RPMI-8226): 11%; GI% (HT29): 13%; GI% (UACC-62): 14%; GI% (MDA-MB-231/ATCC): 11%; GI% (BT-549): 14%
2 | CS(=O)(=O)c1ccc(C(=O)N2N=C(c3ccccc3)CC2c2ccccc2)cc1 (stereo not drawn) [Compound 18a, (3,5-Diphenyl-4,5-dihydro-1H-pyrazol-1-yl)(4-(methylsulfonyl)phenyl)methanone] | 11/59 | 98.11 | 32 | 19 | 32 | 18 | 11 |  | 11 | 18 |  |  |  |  | 12 |  |  |  |  | 259 to 261 | GI% (SR): 13%; GI% (MALME-3M): 11%; GI% (UACC-257): 14%
3 | COc1ccc(C2=NN(C(=O)c3ccc(S(C)(=O)=O)cc3)C(c3ccc(OC)c(OC)c3)C2)c(OC)c1 (stereo not drawn) [Compound 18p, (3-(2,4-Dimethoxyphenyl)-5-(3,4-dimethoxyphenyl)-4,5-dihydro-1H-pyrazol-1-yl)(4-(methylsulfonyl)phenyl)methanone] | 11/59 | 97.33 | 31 | 23 |  |  |  | 26 | 15 | 13 | 17 |  | 16 |  | 25 |  |  | 25 | 13 | 169 to 171 | GI% (SF-268): 11%
4 | Cc1ccc(C2CC(c3ccccc3)=NN2C(=O)c2ccc(S(C)(=O)=O)cc2)cc1 (stereo not drawn) [Compound 18f, (4-(Methylsulfonyl)phenyl)(3-phenyl-5-(4-tolyl)-4,5-dihydro-1H-pyrazol-1-yl)methanone] | 21/59 | 93.80 | 14 |  | 30 | 16 | 13 | 12 | 17 | 37 | 20 | 20 |  | 16 | 24 | 28 | 11 | 16 | 15 | 225 to 227 | GI% (RPMI-8226): 18%; GI% (HT29): 12%; GI% (U251): 11%; GI% (SK-MEL-2): 11%; GI% (UACC-257): 26%; GI% (UACC-62): 12%; phase of cell cycle arrest (HL-60 cells): S/G2 phase
5 | COc1ccc(C2=NN(C(=O)c3ccc(S(C)(=O)=O)cc3)C(c3cc(OC)c(OC)c(OC)c3)C2)cc1OC (stereo not drawn) [Compound 18q, (3-(3,4-Dimethoxyphenyl)-5-(3,4,5-trimethoxyphenyl)-4,5-dihydro-1H-pyrazol-1-yl)(4-(methylsulfonyl)phenyl)methanone] | 6/59 | 97.51 |  |  |  |  |  |  |  |  |  | 13 |  | 13 | 24 |  | 12 |  | 12 | 150 to 152 | GI% (A498): 13%
6 | CS(=O)(=O)c1ccc(C(=O)N2N=C(c3ccccc3)CC2c2ccc3c(c2)OCO3)cc1 (stereo not drawn) [Compound 18m, (5-(Benzo[d][1,3]dioxol-5-yl)-3-phenyl-4,5-dihydro-1H-pyrazol-1-yl)(4-(methylsulfonyl)phenyl)methanone] | 18/59 | 91.96 | 63 | 40 | 48 | 20 |  | 17 | 11 | 13 | 18 | 12 | 16 |  | 34 | 15 | 16 | 22 |  | 155 to 157 | GI% (COLO 205): 19%; GI% (HCT-15): 14%; GI% (A498): 14%; GI% (BT-549): 14%
